Marks after values point to notes of the source that are not given here.

For one series, the system named is Normal test subjects. The note with it: in vivo. How it is done:
Normal test subjects were loaded with 1.5% body weight of water under constantly maintained conditions, with urine being collected every 30 minutes, as described by J.H. Cort et al., Kidney International. 8:292, 1975, and then they were administered dDAVP intranasally, using a standard 0.1 mg/ml formulation obtained from Ferring AB of Malmo. A portion of the dDAVP was set aside, while Na-CMC was added to another portion to form a solution having a CMC:dDAVP weight ratio of 100:1.

For series [1] the following is noted: in vivo, iv; cited from earlier work.
A further series can be described thus: in vivo. The note with it: male, rat, sc, pH 4.

The term Cmax denotes the peak of the concentration-time curve. Broadly, the Tmax is the time from dosing to the highest level. As usually defined, the half-life is how long it takes for the measured level to halve. Lower therefore signals rapid decline. For `NC(=O)CC[C@@H]1NC(=O)[C@H](Cc2ccccc2)NC(=O)[C@H](Cc2ccc(O)cc2)NC(=O)CCSSC[C@@H](C(=O)N2CCC[C@H]2C(=O)N[C@H](CCCN=C(N)N)C(=O)NCC(N)=O)NC(=O)[C@H](CC(N)=O)NC1=O` [dDAVP, desmopressin], in the series on Normal test subjects, the “Peak % Inhibition of Diuretic Urine Flow” value was -76.7* %. For the same molecule, the “half-life (T1/2)” value in series [1] was 17 to 18 min. For the same molecule, in the series “in vivo”, the concentration peaked (Cmax) at 0.027 ng/mL, the Tmax was 8.8 min and the half-life was 20.5 min.

Source of the values: patent EP0381345B1, “Aqueous liquid desmopressin-CMC pharmaceutical composition” (CORINT, LTD., priority 1989, dated 1990).
